{
  "source": "the supplement of paper PMC10307832",
  "assay_in_all_cases": "relative viability (nuclei count vs DMSO), 5 days (fraction); higher = more cells survive",
  "key": {"HCC-366": {"tested_on": "HCC-366", "in_short": "(§1)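 Lung cancer cell lines, seeded in 1536-well plates, were treated the following day by pin tool with a single drug or with five library-drug doses (not always all listed) in √10 steps on top of a fixed anchor-drug dose. Cells were fixed and nuclei stained in one step after 5 days, and nuclei were counted. Relative viability is the nuclei count for treated wells divided by that for vehicle wells, reported as medians of duplicate plates.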"}, "NCI-H1792": {"tested_on": "NCI-H1792", "in_short": "as §1"}, "NCI-H2087": {"tested_on": "NCI-H2087", "in_short": "as §1"}, "NCI-H647": {"tested_on": "NCI-H647", "in_short": "as §1"}, "SK-MES-1": {"tested_on": "SK-MES-1", "in_short": "as §1"}, "EKVX": {"tested_on": "EKVX", "in_short": "as §1"}, "SK-LU-1": {"tested_on": "SK-LU-1", "in_short": "as §1"}, "LOU-NH91": {"tested_on": "LOU-NH91", "in_short": "as §1"}, "HCC-827": {"tested_on": "HCC-827", "in_short": "as §1"}, "BEN": {"tested_on": "BEN", "in_short": "as §1"}, "NCI-H2009": {"tested_on": "NCI-H2009", "in_short": "as §1"}, "NCI-H2170": {"tested_on": "NCI-H2170", "in_short": "as §1"}, "LC-2-ad": {"tested_on": "LC-2-ad", "in_short": "as §1"}, "NCI-H1395": {"tested_on": "NCI-H1395", "in_short": "as §1"}, "NCI-H661": {"tested_on": "NCI-H661", "in_short": "as §1"}, "NCI-H1355": {"tested_on": "NCI-H1355", "in_short": "as §1"}, "NCI-H1734": {"tested_on": "NCI-H1734", "in_short": "as §1"}, "NCI-H1437": {"tested_on": "NCI-H1437", "in_short": "as §1"}, "NCI-H2405": {"tested_on": "NCI-H2405", "in_short": "as §1"}, "NCI-H2228": {"tested_on": "NCI-H2228", "in_short": "as §1"}, "NCI-H596": {"tested_on": "NCI-H596", "in_short": "as §1"}, "HARA": {"tested_on": "HARA", "in_short": "as §1"}},
  "data": [
    {"smiles": "O=C(O)c1ccc(-c2c[nH]c3ncc(-c4ccccc4)cc23)cc1C1CCCC1", "note": "+ CS(=O)(=O)CCNCc1ccc(-c2ccc3ncnc(Nc4ccc(OCc5cccc(F)c5)c(Cl)c4)c3c2)o1 [Lapatinib] (partner 2 µM)", "values": [
      {"measurement": "relative viability", "setting": "HCC-366; first compound 0.04 µM", "value": 1.01},
      {"measurement": "relative viability", "setting": "HCC-366; first compound 0.1265 µM", "value": 0.869},
      {"measurement": "relative viability", "setting": "HCC-366; first compound 0.4 µM", "value": 0.953},
      {"measurement": "relative viability", "setting": "HCC-366; first compound 1.265 µM", "value": 0.981},
      {"measurement": "relative viability", "setting": "NCI-H1792; first compound 0.04 µM", "value": 0.77},
      {"measurement": "relative viability", "setting": "NCI-H1792; first compound 0.1265 µM", "value": 0.942},
      {"measurement": "relative viability", "setting": "NCI-H1792; first compound 0.4 µM", "value": 0.953},
      {"measurement": "relative viability", "setting": "NCI-H1792; first compound 1.265 µM", "value": 0.847},
      {"measurement": "relative viability", "setting": "NCI-H2087; first compound 0.04 µM", "value": 1.01},
      {"measurement": "relative viability", "setting": "NCI-H2087; first compound 0.1265 µM", "value": 1.27},
      {"measurement": "relative viability", "setting": "NCI-H2087; first compound 0.4 µM", "value": 1.02},
      {"measurement": "relative viability", "setting": "NCI-H2087; first compound 1.265 µM", "value": 1.02},
      {"measurement": "relative viability", "setting": "NCI-H647; first compound 0.04 µM", "value": 1.05},
      {"measurement": "relative viability", "setting": "NCI-H647; first compound 0.1265 µM", "value": 1.12},
      {"measurement": "relative viability", "setting": "NCI-H647; first compound 0.4 µM", "value": 1.13},
      {"measurement": "relative viability", "setting": "NCI-H647; first compound 1.265 µM", "value": 0.801},
      {"measurement": "relative viability", "setting": "SK-MES-1; first compound 0.04 µM", "value": 0.443},
      {"measurement": "relative viability", "setting": "SK-MES-1; first compound 0.1265 µM", "value": 0.495},
      {"measurement": "relative viability", "setting": "SK-MES-1; first compound 0.4 µM", "value": 0.464},
      {"measurement": "relative viability", "setting": "SK-MES-1; first compound 1.265 µM", "value": 0.412},
      {"measurement": "relative viability", "setting": "EKVX; first compound 0.04 µM", "value": 0.218},
      {"measurement": "relative viability", "setting": "EKVX; first compound 0.1265 µM", "value": 0.216},
      {"measurement": "relative viability", "setting": "EKVX; first compound 0.4 µM", "value": 0.212},
      {"measurement": "relative viability", "setting": "EKVX; first compound 1.265 µM", "value": 0.187},
      {"measurement": "relative viability", "setting": "SK-LU-1; first compound 0.04 µM", "value": 0.874},
      {"measurement": "relative viability", "setting": "SK-LU-1; first compound 0.1265 µM", "value": 0.831},
      {"measurement": "relative viability", "setting": "SK-LU-1; first compound 0.4 µM", "value": 0.771},
      {"measurement": "relative viability", "setting": "SK-LU-1; first compound 1.265 µM", "value": 0.488},
      {"measurement": "relative viability", "setting": "LOU-NH91; first compound 0.04 µM", "value": 0.814},
      {"measurement": "relative viability", "setting": "LOU-NH91; first compound 0.1265 µM", "value": 0.837},
      {"measurement": "relative viability", "setting": "LOU-NH91; first compound 0.4 µM", "value": 0.766},
      {"measurement": "relative viability", "setting": "LOU-NH91; first compound 1.265 µM", "value": 0.651},
      {"measurement": "relative viability", "setting": "HCC-827; first compound 0.04 µM", "value": 0.209},
      {"measurement": "relative viability", "setting": "HCC-827; first compound 0.1265 µM", "value": 0.196},
      {"measurement": "relative viability", "setting": "HCC-827; first compound 0.4 µM", "value": 0.189},
      {"measurement": "relative viability", "setting": "HCC-827; first compound 1.265 µM", "value": 0.195},
      {"measurement": "relative viability", "setting": "BEN; first compound 0.04 µM", "value": 0.717},
      {"measurement": "relative viability", "setting": "BEN; first compound 0.1265 µM", "value": 0.611},
      {"measurement": "relative viability", "setting": "BEN; first compound 0.4 µM", "value": 0.815},
      {"measurement": "relative viability", "setting": "BEN; first compound 1.265 µM", "value": 0.666},
      {"measurement": "relative viability", "setting": "NCI-H2009; first compound 0.04 µM", "value": 1.06},
      {"measurement": "relative viability", "setting": "NCI-H2009; first compound 0.1265 µM", "value": 0.922},
      {"measurement": "relative viability", "setting": "NCI-H2009; first compound 0.4 µM", "value": 0.882},
      {"measurement": "relative viability", "setting": "NCI-H2009; first compound 1.265 µM", "value": 0.848},
      {"measurement": "relative viability", "setting": "NCI-H2170; first compound 0.04 µM", "value": 0.26},
      {"measurement": "relative viability", "setting": "NCI-H2170; first compound 0.1265 µM", "value": 0.324},
      {"measurement": "relative viability", "setting": "NCI-H2170; first compound 0.4 µM", "value": 0.262},
      {"measurement": "relative viability", "setting": "NCI-H2170; first compound 1.265 µM", "value": 0.28},
      {"measurement": "relative viability", "setting": "LC-2-ad; first compound 0.04 µM", "value": 1},
      {"measurement": "relative viability", "setting": "LC-2-ad; first compound 0.1265 µM", "value": 1.02},
      {"measurement": "relative viability", "setting": "LC-2-ad; first compound 0.4 µM", "value": 0.904},
      {"measurement": "relative viability", "setting": "LC-2-ad; first compound 1.265 µM", "value": 0.803},
      {"measurement": "relative viability", "setting": "NCI-H1395; first compound 0.04 µM", "value": 1.01},
      {"measurement": "relative viability", "setting": "NCI-H1395; first compound 0.1265 µM", "value": 1.23},
      {"measurement": "relative viability", "setting": "NCI-H1395; first compound 0.4 µM", "value": 0.867},
      {"measurement": "relative viability", "setting": "NCI-H1395; first compound 1.265 µM", "value": 0.851},
      {"measurement": "relative viability", "setting": "NCI-H661; first compound 0.04 µM", "value": 0.455},
      {"measurement": "relative viability", "setting": "NCI-H661; first compound 0.1265 µM", "value": 0.633},
      {"measurement": "relative viability", "setting": "NCI-H661; first compound 0.4 µM", "value": 0.515},
      {"measurement": "relative viability", "setting": "NCI-H661; first compound 1.265 µM", "value": 0.458},
      {"measurement": "relative viability", "setting": "NCI-H1355; first compound 0.04 µM", "value": 1.02},
      {"measurement": "relative viability", "setting": "NCI-H1355; first compound 0.1265 µM", "value": 1.09},
      {"measurement": "relative viability", "setting": "NCI-H1355; first compound 0.4 µM", "value": 0.963},
      {"measurement": "relative viability", "setting": "NCI-H1355; first compound 1.265 µM", "value": 0.829},
      {"measurement": "relative viability", "setting": "NCI-H1734; first compound 0.04 µM", "value": 1.07},
      {"measurement": "relative viability", "setting": "NCI-H1734; first compound 0.1265 µM", "value": 1.1},
      {"measurement": "relative viability", "setting": "NCI-H1734; first compound 0.4 µM", "value": 0.955},
      {"measurement": "relative viability", "setting": "NCI-H1734; first compound 1.265 µM", "value": 0.984},
      {"measurement": "relative viability", "setting": "NCI-H1437; first compound 0.04 µM", "value": 0.794},
      {"measurement": "relative viability", "setting": "NCI-H1437; first compound 0.1265 µM", "value": 0.823},
      {"measurement": "relative viability", "setting": "NCI-H1437; first compound 0.4 µM", "value": 0.765},
      {"measurement": "relative viability", "setting": "NCI-H1437; first compound 1.265 µM", "value": 0.338},
      {"measurement": "relative viability", "setting": "NCI-H2405; first compound 0.04 µM", "value": 1.08},
      {"measurement": "relative viability", "setting": "NCI-H2405; first compound 0.1265 µM", "value": 1.34},
      {"measurement": "relative viability", "setting": "NCI-H2405; first compound 0.4 µM", "value": 0.868},
      {"measurement": "relative viability", "setting": "NCI-H2405; first compound 1.265 µM", "value": 0.867},
      {"measurement": "relative viability", "setting": "NCI-H2228; first compound 0.04 µM", "value": 1.17},
      {"measurement": "relative viability", "setting": "NCI-H2228; first compound 0.1265 µM", "value": 1.41},
      {"measurement": "relative viability", "setting": "NCI-H2228; first compound 0.4 µM", "value": 1.2},
      {"measurement": "relative viability", "setting": "NCI-H2228; first compound 1.265 µM", "value": 0.362},
      {"measurement": "relative viability", "setting": "NCI-H596; first compound 0.04 µM", "value": 1.1},
      {"measurement": "relative viability", "setting": "NCI-H596; first compound 0.1265 µM", "value": 1.02},
      {"measurement": "relative viability", "setting": "NCI-H596; first compound 0.4 µM", "value": 0.979},
      {"measurement": "relative viability", "setting": "NCI-H596; first compound 1.265 µM", "value": 1.03},
      {"measurement": "relative viability", "setting": "HARA; first compound 0.04 µM", "value": 0.578},
      {"measurement": "relative viability", "setting": "HARA; first compound 0.1265 µM", "value": 0.925},
      {"measurement": "relative viability", "setting": "HARA; first compound 0.4 µM", "value": 0.802},
      {"measurement": "relative viability", "setting": "HARA; first compound 1.265 µM", "value": 0.716}
    ]}
  ]
}
